Test results from patent US20230312578A1, “6H-INDOLO[2,3-B]QUINOXALINE DERIVATIVES USEFUL IN THERAPY” (Vironova Medical AB, priority 2020, published 2023).
Read-outs that look alike come from different tables or passages of the source.

What was measured:
Type in all cases: cell-based
DU-145 = assay: Human tumor cell line growth assay (SRB); conditions: Prostate, DU-145, 48 h
SF-268 = assay: Human tumor cell line growth assay (SRB); conditions: Homo sapiens; CNS, SF-268, 48 h
[1] = Human tumor cell line growth assay (SRB); conditions: human, SF-268 cells (CNS), SF-268, 48 h
KM12 = assay: Human tumor cell line growth assay (SRB); conditions: Homo sapiens; Colon, KM12, 48 h
[2] = Human tumor cell line growth assay (SRB); conditions: human, KM12 cells (colon), KM12, 48 h, read-out: LC50
MDA-MB-468 = assay: Human tumor cell line growth assay (SRB); conditions: Breast, MDA-MB-468, 48 h
SF-539 = assay: Human tumor cell line growth assay (SRB); conditions: Homo sapiens; CNS, SF-539, 48 h
[3] = Human tumor cell line growth assay (SRB); conditions: human, SF-539 cells (CNS), SF-539, 48 h, read-out: LC50
[4] = Human tumor cell line growth assay (SRB); conditions: human, HOP-92 cells (NSCLC), HOP-92, 48 h
ACHN = assay: Human tumor cell line growth assay (SRB); conditions: Renal, 48 h
K-562 = assay: Human tumor cell line growth assay (SRB); conditions: K562, Leukemia, K-562, 48 h
U251 = assay: Human tumor cell line growth assay (SRB); conditions: Homo sapiens, U-251; CNS, U251, 48 h
[5] = Human tumor cell line growth assay (SRB); conditions: human, U251 cells (CNS), U251, 48 h, read-out: LC50
OVCAR-3 = assay: Human tumor cell line growth assay (SRB); conditions: Homo sapiens; Ovarian, OVCAR-3, 48 h
[6] = Human tumor cell line growth assay (SRB); conditions: human, OVCAR-3 cells (ovarian), OVCAR-3, 48 h, read-out: LC50
HCT-15 = assay: Human tumor cell line growth assay (SRB); conditions: Homo sapiens; Colon, HCT-15, 48 h
[7] = Human tumor cell line growth assay (SRB); conditions: human, HCT-15 cells (colon), HCT-15, 48 h
A498 = assay: Human tumor cell line growth assay (SRB); conditions: Renal, A498, 48 h
MCF7 = assay: Human tumor cell line growth assay (SRB); conditions: Breast, MCF7, 48 h
RXF 393 = assay: Human tumor cell line growth assay (SRB); conditions: Renal, RXF 393, 48 h
NCI-H522 = assay: Human tumor cell line growth assay (SRB); conditions: Homo sapiens; NSCLC, NCI-H522, 48 h
[8] = Human tumor cell line growth assay (SRB); conditions: human, NCI-H522 cells (NSCLC), NCI-H522, 48 h
OVCAR-5 = assay: Human tumor cell line growth assay (SRB); conditions: Homo sapiens; Ovarian, OVCAR-5, 48 h
[9] = Human tumor cell line growth assay (SRB); conditions: human, OVCAR-5 cells (ovarian), OVCAR-5, 48 h, read-out: LC50
NCI-H226 = assay: Human tumor cell line growth assay (SRB); conditions: Homo sapiens; NSCLC, NCI-H226, 48 h
[10] = Human tumor cell line growth assay (SRB); conditions: human, NCI-H226 cells (NSCLC), NCI-H226, 48 h, read-out: LC50
SN12C = assay: Human tumor cell line growth assay (SRB); conditions: Renal, 48 h
MDA-MB-231/ATCC = assay: Human tumor cell line growth assay (SRB); conditions: Breast, 48 h
PC-3 = assay: Human tumor cell line growth assay (SRB); conditions: Prostate, PC-3, 48 h
UACC-257 = assay: Human tumor cell line growth assay (SRB); conditions: Homo sapiens; Melanoma, UACC-257, 48 h
[11] = Human tumor cell line growth assay (SRB); conditions: human, UACC-257 cells (melanoma), UACC-257, 48 h, read-out: LC50
M14 = assay: Human tumor cell line growth assay (SRB); conditions: Homo sapiens; Melanoma, M14, 48 h
[12] = Human tumor cell line growth assay (SRB); conditions: human, M14 cells (melanoma), M14, 48 h, read-out: LC50
SF-295 = assay: Human tumor cell line growth assay (SRB); conditions: Homo sapiens; CNS, SF-295, 48 h
[13] = Human tumor cell line growth assay (SRB); conditions: human, SF-295 cells (CNS), SF-295, 48 h, read-out: LC50
OVCAR-4 = assay: Human tumor cell line growth assay (SRB); conditions: Homo sapiens; Ovarian, OVCAR-4, 48 h
[14] = Human tumor cell line growth assay (SRB); conditions: human, OVCAR-4 cells (ovarian), OVCAR-4, 48 h, read-out: LC50
[15] = read-out: LC50 (the source's name)

With `Cc1cc2nc3c4cc(N)ccc4n(CCN(C)C)c3nc2cc1C` [JBD-136, 6-(2-(dimethylamino)ethyl)-2,3-dimethyl-6H-indolo [2,3-b]quinoxalin-9-amine] the GI50 (DU-145) was 1550 nM, the CC50 (DU-145; [15]) was 47800 nM and the GI50 (SF-268) was 1570 nM. The LC50 (50% lethal concentration) at 48 h [1] was 42700 nM, the GI50 (KM12) was 1200 nM and the CC50 at 48 h [2] was 94700 nM. For the same compound, the GI50 (MDA-MB-468) was 1030 nM, the CC50 (MDA-MB-468; [15]) was 8280 nM and the GI50 (SF-539) was 882 nM. The CC50 at 48 h [3] was 19500 nM, the LC50 at 48 h [4] was over 100000 nM and the GI50 (ACHN) was 367 nM. It also gave a CC50 (ACHN; [15]) of 57300 nM, a GI50 (K-562) of 426 nM and a CC50 (K-562; [15]) of 65600 nM. The GI50 (U251) was 640 nM, the CC50 at 48 h [5] was 54200 nM and the GI50 (OVCAR-3) was 1560 nM. For the same compound, the CC50 at 48 h [6] was 75800 nM, the GI50 (HCT-15) was 528 nM and the LC50 (concentration killing 50% of cells) at 48 h [7] was over 100000 nM. For the same compound, the GI50 (A498) was 1070 nM, the CC50 (A498; [15]) was 5860 nM and the GI50 (MCF7) was 675 nM. The CC50 (MCF7; [15]) was 57500 nM, the GI50 (RXF 393) was 1130 nM and the CC50 (RXF 393; [15]) was 6400 nM. The GI50 (NCI-H522) was 771 nM, the LC50 at 48 h [8] was over 100000 nM and the GI50 (OVCAR-5) was 1240 nM. It also gave a CC50 at 48 h [9] of over 100000 nM, a GI50 (NCI-H226) of 1320 nM and a CC50 at 48 h [10] of over 100000 nM. It also gave a GI50 (SN12C) of 553 nM, a CC50 (SN12C; [15]) of over 100000 nM and a GI50 (MDA-MB-231/ATCC) of 1220 nM. The CC50 (MDA-MB-231/ATCC; [15]) was 57500 nM, the GI50 (PC-3) was 1280 nM and the CC50 (PC-3; [15]) was 51900 nM. For the same compound, the GI50 (UACC-257) was 1500 nM, the CC50 at 48 h [11] was 71500 nM and the GI50 (M14) was 1120 nM. It also gave a CC50 at 48 h [12] of 6430 nM, a GI50 (SF-295) of 1240 nM and a CC50 at 48 h [13] of 33800 nM. The GI50 (OVCAR-4) was 1700 nM and the CC50 at 48 h [14] was 59000 nM.
